# Source: paper PMC12389136, “Insights into the Structural Patterns in Human Glioblastoma Cell Line SF268 Activity and ADMET Prediction of Curcumin Derivatives” (Pharmaceutics, 2025)
# What was measured:
# Vero cells = assay: Mammalian cytotoxicity, MTT assay in Vero cells; type: cell-based; conditions: 48 h; for IC50: Chlorocebus sabaeus
# Method: Grade IV SF268 glioblastoma cells and Vero epithelial cells were obtained from ATCC and cultured in complete medium consisting of Roswell Park Memorial Institute medium (RPMI-1640) supplemented with 0.05% gentamicin (50 mg/mL) and 10% FBS (fetal bovine serum; Gibco, Invitrogen, Carlsbad, CA, USA). Cultures were maintained at 37 °C in a 5% CO2 atmosphere and split by trypsin treatment once per week to maintain confluence.
# For the cytotoxicity assays, Vero cells were cultivated in 96-well plates at 37 °C under a 5% CO2 atmosphere using RPMI-1640 medium with 0.05% gentamicin (50 mg/mL) and 10% FBS (fetal bovine serum). Vero cells were allowed to adhere for 24 h before being incubated for 48 h with the samples. During the treatment, dimethyl sulfoxide (DMSO) was used as a negative control, curcumin (1) was used as a control, and samples were assayed at four different concentrations. After incubation, MTT (3-(4,5-di-methyl-thiazol-2-yl)-2,5-diphenyl-tetrazolium bromide) was added to each well, and the absorbance at 570 nm was determined 4 h later using a color plate reader. Cytotoxicity was evaluated colorimetrically by calculating the ability of the remaining living Vero cells to reduce the pale yellow MTT to the black–purple formazan product, as previously described. All bioassays were performed in duplicate, and the inhibitory concentration (IC50) values were determined using the Data Analysis complement Wizard of Excel 2000 (Microsoft, Seattle, WA, USA).
# SF268 glioblastoma cells = assay: MTT cytotoxicity in the glioblastoma cell line SF268 (single-concentration screening and IC50); type: cell-based, Human; conditions: for IC50 / activity at 10 µg/mL: Homo sapiens; for IC50: SF-268; for activity at 10 µg/mL: SF-268, 48 h, read-out: Growth Screening (%RG); for activity at 10 µg/mL / Growth Screening (%RG): SF268, single concentration 10 µg/mL, 48 h, percentage of relative growth; for Selectivity Index (SI): Vero versus SF268
# Method: Cultures were maintained at 37 °C in a 5% CO2 atmosphere and split by trypsin treatment once per week to maintain confluence.
# RPMI without cells was used as a color control, and doxorubicin was used as an inhibition control. After treatment, MTT was added to each well, and the absorbance at 570 nm was determined 4 h later using a color plate reader. All bioassays were performed in duplicate, and the IC50 values were determined by the Data Analysis complement Wizard of Excel 2000 (Microsoft, Seattle, WA, USA).
# SF268 cell microtubules = assay: Immunofluorescence staining of microtubules in SF268 cells; type: cell-based, Human; conditions: SF268, 10 µg/mL, 24 h / 12 h, versus DMSO control
# Method: SF268 cells were seeded onto 96-well plates and allowed to adhere overnight in complete growth medium (RPMI-1640).
# After treatment, the cells were rinsed two times with PBS, fixed in 4% paraformaldehyde (15 min), and permeabilized with 0.5% Triton X-100 (Sigma Aldrich, St. Louis, MO, USA) (5 min). Nonspecific binding was blocked with 5% bovine serum albumin (BSA) in phosphate-buffered saline (PBS) for 1 h. […] Nuclei were counterstained with Hoechst 33342 (15 min), washed 2 times with PBS, and left in PBS at 4 °C in the dark.
# Fluorescence images were acquired with an Olympus IX70 microscope (Olympus, Tokyo, Japan) using a 60× objective with identical exposure settings for all conditions. Microtubule density and organization were acquired and analyzed using β-tubulin signals in HCImage Hamamatsu (version 4.8) and ImageJ (version 1.54).
# SF268 cells were exposed to media containing either DMSO as a control or curcumin derivatives at 10 μg/mL for 24 h, after which the microtubules were visualized with an α tubulin antibody (yellow), and the cell nuclei were stained with Hoechst (blue).
# The cells were then stained with a β-tubulin antibody (yellow) and Hoechst dye (blue) to visualize the nucleus.
# [1] = tested on: mitochondrial membrane potential of SF268 cancer cells; assay: Mitochondrial membrane potential measurement with DiOC6; type: cell-based, Human; conditions: 10 µg/mL, 6 h, versus DMSO control
# Method: Changes in membrane potential were measured by staining cultured cells with the mitochondrial selective dye 3,3′-dihexyloxacarbocyanine (DiOC6) at 10 nM (Thermo Fisher, Waltham, MA, USA). The samples were incubated at 10 μg/mL for 6 h at 37 °C and then stained for 20 min with DiOC6 in the dark. Following incubation, the cells were washed, and the green fluorescence intensity of the DiOC6-stained cells was analyzed with a fluorometer immediately after staining. Incubation for 1 h with the mitochondrial membrane disruptor CCCP, carbonyl cyanide m-chlorophenylhydrazone (50 μM final concentration), was used as a positive control.
# Changes in the mitochondrial membrane potential, a common hallmark of programmed cell death, were analyzed in samples with promising activities toward CNS cell line growth. We examined the effects of these compounds on the mitochondrial membrane potential using the dye DiOC6, a fluorophore that accumulates rapidly and selectively inside mitochondria depending on the membrane potential.
# Figure 6 Changes in mitochondrial membrane potential caused by the compounds. Fluorometry was used to measure the mitochondrial effects of compounds that inhibited cell growth in culture. A membrane disruptor (CCCP) was added as a positive control, and untreated cultures (DMSO) were used as a negative control. […]
# Porcine tubulin = molecular target: T1, Porcine tubulin (Sus scrofa, UniProt P02550+P02554); assay: In vitro tubulin polymerization assay (cell-free kit); type: biochemical; conditions: 10 µg/mL, 1 h at 37 °C, versus DMSO control
# T1 construct: purchased Cytoskeleton Inc., Denver, CO, USA BK011P; host or cells: porcine neural tissue (tissue-purified; that it is brain is my own knowledge of the kit)
# T1 sequence (P02550 whole entry): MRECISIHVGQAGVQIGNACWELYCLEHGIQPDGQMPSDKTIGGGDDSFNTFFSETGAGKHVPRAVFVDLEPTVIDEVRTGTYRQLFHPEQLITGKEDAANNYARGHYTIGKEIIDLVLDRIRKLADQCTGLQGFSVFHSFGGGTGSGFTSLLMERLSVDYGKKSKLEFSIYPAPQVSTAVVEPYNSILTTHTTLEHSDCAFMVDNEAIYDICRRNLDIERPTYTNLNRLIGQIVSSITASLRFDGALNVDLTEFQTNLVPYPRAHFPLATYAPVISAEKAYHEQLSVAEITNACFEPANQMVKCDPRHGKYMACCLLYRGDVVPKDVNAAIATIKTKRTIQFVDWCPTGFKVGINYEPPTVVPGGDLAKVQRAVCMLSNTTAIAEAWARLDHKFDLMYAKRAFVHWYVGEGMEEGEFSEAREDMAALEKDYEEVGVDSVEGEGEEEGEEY
# T1 sequence (P02554 whole entry): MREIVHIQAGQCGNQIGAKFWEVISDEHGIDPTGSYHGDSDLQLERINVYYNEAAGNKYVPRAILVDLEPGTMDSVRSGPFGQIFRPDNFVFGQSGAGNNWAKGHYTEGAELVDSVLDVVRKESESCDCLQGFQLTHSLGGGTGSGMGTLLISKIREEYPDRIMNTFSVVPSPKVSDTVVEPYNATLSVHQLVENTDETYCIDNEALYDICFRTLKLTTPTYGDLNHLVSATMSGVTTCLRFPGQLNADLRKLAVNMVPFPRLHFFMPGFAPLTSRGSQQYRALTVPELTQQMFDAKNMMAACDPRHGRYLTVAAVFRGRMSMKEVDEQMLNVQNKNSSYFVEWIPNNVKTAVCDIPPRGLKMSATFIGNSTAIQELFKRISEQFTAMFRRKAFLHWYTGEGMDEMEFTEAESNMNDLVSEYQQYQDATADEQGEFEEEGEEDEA
# Method: A Tubulin Polymerization Assay Kit (Porcine tubulin and Fluorescence-based; Cat. # BK011P) (Cytoskeleton Inc., Denver, CO, USA) was used. Neural tubulin (>99% pure cytoskeleton) and tubulin polymerization buffer were mixed with 10 µg/mL curcumin derivatives or the vehicle DMSO at 37 °C in a preheated 96-well plate. The measurement of […] was immediately initiated using a Bio-Tek Synergy HT plate reader (one reading per minute for 1 h, according to the kit instructions). The rate of tubulin polymerization (milli-OD340 units per min) was then calculated for each sample from the linear portion of the kinetics curve, and group mean rates were analyzed for statistical significance.
# We used a fluorescence cell-free-based assay to analyze the ability of curcumin to inhibit tubulin polymerization into microtubules in vitro. […]
# Figure 5 (A) Tubulin polymerization of compounds 1, 2, 3, 4, 6, and 11. Tubulin polymerization was monitored by the increase in fluorescence at 360 nm (excitation) and 420 nm (emission) for 1 h at 37 °C. […]
# The tubulin polymerization activities were determined by measuring fluorescence and recording the area under the curve (AUC). Increasing fluorescence indicates increasing polymerization activity, whereas decreasing fluorescence indicates greater depolymerization activity.
Molecule,IC50 (Vero cells) [µg/mL],"IC50 (SF268 glioblastoma cells; SF268, 48 h, MTT) [µg/mL]",activity at 10 µg/mL (SF268 glioblastoma cells; MTT) [%],also measured
"1,7-bis(4-hydroxy-3-methoxyphenyl)hepta-1,6-diene-3,5-dione [Compound 1, reference compound]",–,–,–,"IC50 VERO (Vero cells): 15.9 µg/mL; IC50 SF268 (SF268 glioblastoma cells; SF268, 48 h, MTT): 6.3 µg/mL"
COc1cc(/C=C/C(O)=C/C(=O)/C=C/c2ccc(OCc3ccccc3)c(OC)c2)ccc1O [Compound 2],11.9,3.97,–,microtubule density and organization (SF268 cell microtubules): significant reduction in microtubule density
COc1cc(/C=C/C(O)=C/C(=O)/C=C/c2ccc(OC(C)=O)c(OC)c2)ccc1O [Compound 3],13.2,0.88,≤ 40,mitochondrial membrane potential (DiOC6 fluorescence intensity) [1]: lowest fluorescence intensity
"COc1cc(/C=C/C(=O)/C=C(O)/C=C/c2ccc(OC(C)=O)c(OC)c2)ccc1OC(C)=O [Compound 4, (1E,3Z,6E)-3-hydroxy-5-oxohepta-1,3,6-triene-1,7-diyl)bis(2-methoxy-4,1-phenylene) diacetate]",42.1,2.45,≤ 40,Selectivity Index (SI) (SF268 glioblastoma cells): 17.16
COC(=O)CCC(=O)Oc1ccc(/C=C/C(=O)/C=C(O)/C=C/c2ccc(O)c(OC)c2)cc1OC [Compound 6],12.9,0.833,≤ 40,microtubule density and organization (SF268 cell microtubules): significant reduction in microtubule density; Selectivity Index (SI) (SF268 glioblastoma cells): 15.45
COc1cc(/C=C/C(O)=C/C(=O)/C=C/c2ccc(OC(=O)CCC(=O)O[C@@H]3C[C@H](C)CC[C@H]3C(C)C)c(OC)c2)ccc1O [Compound 7],–,–,50.9,–
COc1cc(C=CC(=O)C=C(O)C=Cc2ccc(OC(=O)CCC(=O)OC3CC(C)CCC3C(C)C)c(OC)c2)ccc1OC(=O)CCC(=O)OC1CC(C)CCC1C(C)C (stereo not shown) [Compound 8],–,–,55.2,–
COc1cc(/C=C/C(O)=C/C(=O)/C=C/c2ccc(OC(=O)CCC(=O)OC3C4CC5CC(C4)CC3C5)c(OC)c2)ccc1O (stereo not shown) [Compound 9],–,–,45.6,–
COc1cc(/C=C/C(=O)/C=C(O)/C=C/c2ccc(OC(=O)CCC(=O)OC3C4CC5CC(C4)CC3C5)c(OC)c2)ccc1OC(=O)CCC(=O)OC1C2CC3CC(C2)CC1C3 (stereo not shown) [Compound 10],–,–,52,–
"C=CCOC(=O)CCC(=O)Oc1ccc(/C=C/C(=O)/C=C(O)/C=C/c2ccc(O)c(OC)c2)cc1OC [Compound 11, Allyl (4-(1E,3Z,6E)-3-hydroxy-7-(4-hydroxy-3-methoxyphenyl)-5-oxohepta-1,3,6-trien-1-yl)-2-methoxyphenyl) succinate]",11.9,0.59,≤ 40,mitochondrial membrane potential (DiOC6 fluorescence intensity) [1]: lowest fluorescence intensity; microtubule density and organization (SF268 cell microtubules): significant reduction in microtubule density; Selectivity Index (SI) (SF268 glioblastoma cells): 20.17
"C=CCOC(=O)CCC(=O)Oc1ccc(/C=C/C(=O)/C=C(O)/C=C/c2ccc(OC(=O)CCC(=O)OCC=C)c(OC)c2)cc1OC [Compound 12, Diallyl O,O′-(((1E,3Z,6E)-3-hydroxy-5-oxohepta-1,3,6-triene-1,7-diyl)bis(2-methoxy-4,1-phenylene)) disuccinate]",–,–,49.2,–
"COc1cc(/C=C/C(=O)/C=C(O)/C=C/c2ccc(OC(=O)CCC(=O)OCc3ccccc3)c(OC)c2)ccc1OC(=O)CCC(=O)OCc1ccccc1 [Compound 14, Dibenzyl O,O′-(((1E,3Z,6E)-3-hydroxy-5-oxohepta-1,3,6-triene-1,7-diyl)bis(2-methoxy-4,1-phenylene)) disuccinate]",–,–,85.1,–
COc1cc(/C=C/C(O)=C/C(=O)/C=C/c2ccc(OC(=O)CCC(=O)OC(c3ccccc3)C3CCCCC3)c(OC)c2)ccc1O (stereo not shown) [Compound 15],–,–,47.9,–
COc1cc(/C=C/C(=O)/C=C(O)/C=C/c2ccc(OC(=O)CCC(=O)OC(c3ccccc3)C3CCCCC3)c(OC)c2)ccc1OC(=O)CCC(=O)OC(c1ccccc1)C1CCCCC1 (stereo not shown) [Compound 16],–,–,57.2,–
COc1cc(/C=C/C(O)=C/C(=O)/C=C/c2ccc(OC(=O)CCC(=O)OC3CCCc4ccccc43)c(OC)c2)ccc1O (stereo not shown) [Compound 17],–,–,46.8,–
COc1cc(/C=C/C(=O)/C=C(O)/C=C/c2ccc(OC(=O)CCC(=O)OC3Cc4ccccc4C3)c(OC)c2)ccc1OC(=O)CCC(=O)OC1Cc2ccccc2C1 [Compound 18],–,–,62.9,–
COc1cc(/C=C/C(O)=C/C(=O)/C=C/c2ccc(OC(=O)CCC(=O)OC3c4ccccc4-c4ccccc43)c(OC)c2)ccc1O [Compound 19],15.2,1.11,≤ 40,Selectivity Index (SI) (SF268 glioblastoma cells): 13.71
COc1cc(/C=C/C(=O)/C=C(O)/C=C/c2ccc(OC(=O)CCC(=O)OC3c4ccccc4-c4ccccc43)c(OC)c2)ccc1OC(=O)CCC(=O)OC1c2ccccc2-c2ccccc21 [Compound 20],–,–,63,–
COc1cc(/C=C/C(O)=C/C(=O)/C=C/c2ccc(OC(=O)CCC(=O)OC(c3ccccc3)c3ccccc3)c(OC)c2)ccc1O [Compound 21],46,36.4,≤ 40,Selectivity Index (SI) (SF268 glioblastoma cells): 1.26
COc1cc(/C=C/C(O)=C/C(=O)/C=C/c2ccc(OC(=O)CCC(=O)OCc3ccc4c(c3)C(=O)c3ccccc3C4=O)c(OC)c2)ccc1O [Compound 22],72.8,58.9,≤ 40,Selectivity Index (SI) (SF268 glioblastoma cells): 1.19
CC(=O)O[C@H]1C(=O)[C@@]2(C)[C@H]([C@H](OC(=O)c3ccccc3)[C@]3(O)C[C@H](OC(=O)[C@H](O)[C@@H](NC(=O)c4ccccc4)c4ccccc4)C(C)=C1C3(C)C)[C@]1(OC(C)=O)CO[C@@H]1C[C@@H]2O [Paclitaxel],–,–,–,"tubulin polymerization (fluorescence, AUC) (Porcine tubulin): caused an increase in the AUC"
[Ca+2].[Cl-].[Cl-] [calcium chloride],–,–,–,"tubulin polymerization (fluorescence, AUC) (Porcine tubulin): significant decrease in the AUC"
"Benzyl (4-((1E,3Z,6E)-3-hydroxy-7-(4-hydroxy-3-methoxyphenyl)-5-oxohepta-1,3,6-trien-1-yl)-2-methoxyphenyl) succinate [Compound 13]",–,–,–,Growth Screening (%RG) (SF268 glioblastoma cells; MTT): 49.88%
"Cyclopentyl (4-((1E,3Z,6E)-3-hydroxy-7-(4-hydroxy-3-methoxyphenyl)-5-oxohepta-1,3,6-trien-1-yl)-2-methoxyphenyl) succinate [Compound 5]",–,–,–,IC50 VERO (Vero cells): 12.6 µg/mL; Growth Screening (%RG) (SF268 glioblastoma cells; MTT): 50.81%
